Source: article PMC4415393, “Immobilized laccase mediated dye decolorization and transformation pathway of azo dye acid red 27” (Journal of Environmental Health Science and Engineering, 2015)

Legend:
[1] = molecular target: T1, PVA-nitrate immobilized laccase (Cyathus bulleri, UniProt A8W7J6); assay: Laccase assay with inhibitors and ABTS kinetics, immobilized enzyme; assay type: biochemical; settings: 1 h pre-incubation
T1 sequence (A8W7J6 17-513): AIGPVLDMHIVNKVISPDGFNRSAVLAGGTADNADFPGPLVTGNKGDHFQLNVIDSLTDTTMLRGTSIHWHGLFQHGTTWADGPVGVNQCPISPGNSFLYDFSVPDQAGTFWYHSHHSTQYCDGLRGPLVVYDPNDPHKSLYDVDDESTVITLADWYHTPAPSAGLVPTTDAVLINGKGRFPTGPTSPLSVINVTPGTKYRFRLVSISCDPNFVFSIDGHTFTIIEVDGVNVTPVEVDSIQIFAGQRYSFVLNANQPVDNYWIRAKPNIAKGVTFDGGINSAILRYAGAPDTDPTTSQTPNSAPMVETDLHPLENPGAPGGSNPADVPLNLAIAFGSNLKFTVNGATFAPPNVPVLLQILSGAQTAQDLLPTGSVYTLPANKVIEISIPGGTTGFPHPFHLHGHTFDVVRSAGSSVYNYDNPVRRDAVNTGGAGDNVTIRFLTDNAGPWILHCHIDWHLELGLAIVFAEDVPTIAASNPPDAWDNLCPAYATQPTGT

Free laccase = molecular target: T2, Free laccase (Cyathus bulleri, UniProt A8W7J6); assay: Laccase assay with inhibitors and ABTS kinetics, free enzyme; assay type: biochemical; settings: 1 h pre-incubation
T2 sequence (A8W7J6 17-513): T1 sequence (A8W7J6 17-513)

[N-]=[N+]=[N-] [sodium azide]
IC50 [1]: 6 ± 0.3 µM
IC50 (Free laccase): 5 ± 0.5 µM
